In brackets after ≈: the same amount, converted by molar mass.

For this series the following is noted: buffer; pH 7.4; 200.0 µM.
As to `Cc1ccc(N)cc1S(=O)(=O)N(C)C`, the kinetic solubility (commonly solubility judged after dilution from a stock solution rather than from solid) was more than 32.1 µg/mL.

`O=C(NCCCN1CCOCC1)c1ccc(Cl)c([N+](=O)[O-])c1`: the solubility (kinetic) amounted to 45.2 µg/mL (≈ 138 µM).

As to `CS(=O)(=O)c1ccc(Cl)c(NC(=O)CCN2C(=O)NC3(CCCC3)C2=O)c1`, the solubility (kinetic) is more than 62.1 µg/mL.

The compound `Cc1ccc2[nH]c(=S)n(-c3cccnc3)c(=O)c2c1` yielded a kinetic solubility of 2.8 µg/mL (≈ 10.4 µM).

Consider `O=C(CC1CCCC1)Nc1ccc(Cl)c(S(=O)(=O)N2CCOCC2)c1`, for which the kinetic solubility came out at 54.7 µg/mL (≈ 141 µM).

`O=C(C[n+]1ccc(/C=N/O)cc1)NC(=O)Nc1ccccc1` came in with a kinetic solubility of 41.6 µg/mL.

For `N#Cc1cccc(NC(=O)CCN2C(=O)C3CCCCC3C2=O)c1` (stereo unspecified), the kinetic solubility is more than 48.8 µg/mL.

`COc1ccc(C(C)=O)cc1CC(=O)Nc1ccc2c(c1)CCC2`: the solubility (kinetic) turned out to be 7.9 µg/mL (≈ 24.4 µM).

`O=C(NC(=O)c1ccccc1)Nc1ccc(-c2cnco2)cc1` had a solubility (kinetic) of less than 0.2 µg/mL.

As to `CN1C(=O)/C(=C\c2ccc(N3CCCCCC3)cc2)C(=O)NC1=S`, the kinetic solubility turned out to be 2.7 µg/mL (≈ 7.86 µM).

`CC(C)(C)OC(=O)N1CCC(CNC(=O)c2cccs2)CC1` showed a kinetic solubility of 42.4 µg/mL (≈ 131 µM).

As for `O=S(=O)(NCC(O)c1ccccc1)c1cc(Cl)sc1Cl` (stereo unspecified), the solubility (kinetic) came to 49.7 µg/mL (≈ 141 µM).

Regarding `Cc1ccccc1C(=O)N1CCN(C(c2ccccc2)c2ccccc2)CC1.Cl`, the kinetic solubility stood at 7.8 µg/mL.

Compound `Cc1cc(C)c2c(c1)C1(OCCO1)C(=O)N2` yielded a solubility (kinetic) of 16.1 µg/mL (≈ 73.4 µM).

The compound `O=C(Nc1cccc(Cl)c1)Nc1ccccc1C(=O)O` returned a solubility (kinetic) of more than 43.6 µg/mL.

`FC(F)(F)c1cc(NC2CCCCC2)ccn1` returned a solubility (kinetic) of 28 µg/mL (≈ 115 µM).

In turn, `CN(C)C(=O)Oc1ccc2c(c1)O/C(=C\c1ccc(Cl)cc1)C2=O` had a kinetic solubility of 0.9 µg/mL (≈ 2.62 µM).

For `CN(C)CCCNC(=O)c1cc(Br)ccc1O`, the solubility (kinetic) amounted to 45.2 µg/mL (≈ 150 µM).

Regarding `Cc1nc(S(=O)(=O)Nc2ccc3c(c2)OCCO3)cn1C`, the kinetic solubility amounted to 13.1 µg/mL (≈ 42.3 µM).

The compound `Cc1onc(NC(=O)NC(=O)c2ccccc2F)c1Br` yielded a solubility (kinetic) of 6.8 µg/mL (≈ 19.9 µM).

In turn, `CC(=O)c1cccc(NC(=O)COC(=O)c2ccccn2)c1` registered a solubility (kinetic) of 35 µg/mL (≈ 117 µM).

`O=C(O)c1ccc(CNC(=O)C23CC4CC(CC(C4)C2)C3)cc1` came in with a kinetic solubility of more than 47 µg/mL.

For `O=C(CN1C(=O)COc2ccccc21)NCCCN1CCOCC1`, the solubility (kinetic) was more than 50 µg/mL.

With `O=C(Nc1cccc(Cl)c1N1CCCC1)c1ccco1`, the kinetic solubility stood at 1.2 µg/mL (≈ 4.13 µM).

For the compound `CNS(=O)(=O)c1ccc(NC(=O)Nc2ccc3c(c2)OCO3)cc1`, the kinetic solubility was 15.6 µg/mL (≈ 44.7 µM).

The compound `COc1ccc(S(=O)(=O)NC2CC3CCC2C3)cc1` (stereo unspecified) returned a solubility (kinetic) of 36.5 µg/mL (≈ 130 µM).

Compound `CCc1noc(C)c1C(=O)OCC(=O)c1ccccc1OC` returned a solubility (kinetic) of 4.6 µg/mL (≈ 15.2 µM).

For `CCCCNC(=O)/C(=C/c1ccco1)NC(=O)c1ccco1`, the solubility (kinetic) came to 37.7 µg/mL (≈ 125 µM).

The compound `COc1ccc(C(=O)NCC2(c3ccccc3)CCOCC2)cc1` had a solubility (kinetic) of 47.1 µg/mL (≈ 145 µM).

In turn, `Cc1ccc(C(C)NC(=O)Cc2cccs2)cc1C` (stereo unspecified) came in with a solubility (kinetic) of more than 41 µg/mL.

Compound `CC(=O)Nc1ccc(/C=C(\C#N)C(N)=O)cc1` came in with a solubility (kinetic) of 16.8 µg/mL (≈ 73.3 µM).

In turn, `COc1cccc(C(=O)c2c[nH]c(C(=O)NCc3cccnc3)c2)c1` came in with a kinetic solubility of more than 50.3 µg/mL.

On to `O=C(O)/C=C/C(=O)Nc1ccc(-n2nccc2C(F)(F)F)cc1`, for which the kinetic solubility was more than 48.8 µg/mL.

`COC(=O)c1ccc(NC(=O)c2cccc(NC(=O)c3ccccc3)c2)cc1` showed a kinetic solubility of 0.9 µg/mL (≈ 2.4 µM).

The compound `CCCN1C(=S)c2ccccc2C1c1ccccc1` (stereo unspecified) registered a solubility (kinetic) of 8.8 µg/mL (≈ 32.9 µM).

For the compound `Cc1ccc(C(=O)Nc2c[nH]c(=O)[nH]c2=O)cc1`, the kinetic solubility is 7.9 µg/mL (≈ 32.2 µM).

`O=C(COC(=O)c1cc[n+]([O-])cc1)Nc1ccc(Cl)c(C(F)(F)F)c1` showed a solubility (kinetic) of more than 56.2 µg/mL.

As to `Cc1c(C)c2ccc(OCC(=O)Nc3ccccn3)cc2oc1=O`, the solubility (kinetic) is less than 0.3 µg/mL.

Regarding `CCN(CCO)C(=O)c1ccc2oc(Cc3ccc(Cl)cc3)nc2c1`, the kinetic solubility came to 41.5 µg/mL (≈ 116 µM).

As to `CC1CC(C)CN(c2ncnc3c2cnn3C)C1` (stereo unspecified), the kinetic solubility was more than 36.8 µg/mL.

`CCCNS(=O)(=O)c1cc2c3c(c1)CCN3C(=O)CC2`: the kinetic solubility is more than 44.2 µg/mL.

(Values after PubChem BioAssay AID1996.)
